Source: the supplement of paper PMC10307832

Tests used:
Experiment in all cases: relative viability (nuclei count vs DMSO), 5 days (fraction); higher = more cells survive
Erlotinib + Luminespib = compound: C#Cc1cccc(Nc2ncnc3cc(OCCOC)c(OCCOC)cc23)c1 [Erlotinib] + CCNC(=O)c1noc(-c2cc(C(C)C)c(O)cc2O)c1-c1ccc(CN2CCOCC2)cc1 [Luminespib] (partner 0.01 µM)
Procedure, shortened: (§1)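 Values are medians from duplicate plates. Each reflects relative viability, defined as the nuclei count of treated wells over that of vehicle wells. Lung cancer cell lines in 1536-well plates were pin-tool dosed one day after seeding with one drug alone or with a fixed anchor-drug dose plus five library-drug doses (not always all listed) in √10 steps, then fixed, stained and imaged at 4× after 5 days.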

Erlotinib + AZD7762 = compound: C#Cc1cccc(Nc2ncnc3cc(OCCOC)c(OCCOC)cc23)c1 [Erlotinib] + NC(=O)Nc1cc(-c2cccc(F)c2)sc1C(=O)N[C@H]1CCCNC1 [AZD7762] (partner 0.2 µM)
Procedure, shortened: as §1

AT9283 + Decitabine = compound: O=C(Nc1c[nH]nc1-c1nc2ccc(CN3CCOCC3)cc2[nH]1)NC1CC1 [AT9283] + Nc1ncn([C@H]2C[C@H](O)[C@@H](CO)O2)c(=O)n1 [Decitabine] (partner 2 µM)
Procedure, shortened: as §1

AT9283 + Luminespib = compound: O=C(Nc1c[nH]nc1-c1nc2ccc(CN3CCOCC3)cc2[nH]1)NC1CC1 [AT9283] + CCNC(=O)c1noc(-c2cc(C(C)C)c(O)cc2O)c1-c1ccc(CN2CCOCC2)cc1 [Luminespib] (partner 0.01 µM)
Procedure, shortened: as §1

AT9283 + Lapatinib = compound: O=C(Nc1c[nH]nc1-c1nc2ccc(CN3CCOCC3)cc2[nH]1)NC1CC1 [AT9283] + CS(=O)(=O)CCNCc1ccc(-c2ccc3ncnc(Nc4ccc(OCc5cccc(F)c5)c(Cl)c4)c3c2)o1 [Lapatinib] (partner 2 µM)
Procedure, shortened: as §1

Cell Line: NCI-H2170
- relative viability (Erlotinib + Luminespib; first compound 0.02 µM): 0.685
- relative viability (Erlotinib + Luminespib; first compound 0.2 µM): 0.413
- relative viability (Erlotinib + Luminespib; first compound 0.6325 µM): 0.743
- relative viability (Erlotinib + Luminespib; first compound 2 µM): 0.398
- relative viability (Erlotinib + AZD7762; first compound 0.02 µM): 0.862
- relative viability (Erlotinib + AZD7762; first compound 0.2 µM): 0.737
- relative viability (Erlotinib + AZD7762; first compound 0.6325 µM): 0.54
- relative viability (Erlotinib + AZD7762; first compound 2 µM): 0.35
- relative viability (AT9283 + Decitabine; first compound 0.003 µM): 0.466
- relative viability (AT9283 + Decitabine; first compound 0.03 µM): 0.366
- relative viability (AT9283 + Decitabine; first compound 0.09487 µM): 0.228
- relative viability (AT9283 + Decitabine; first compound 0.3 µM): 0.156
- relative viability (AT9283 + Luminespib; first compound 0.003 µM): 0.821
- relative viability (AT9283 + Luminespib; first compound 0.03 µM): 0.574
- relative viability (AT9283 + Luminespib; first compound 0.09487 µM): 0.509
- relative viability (AT9283 + Luminespib; first compound 0.3 µM): 0.176
- relative viability (AT9283 + Lapatinib; first compound 0.003 µM): 0.242
- relative viability (AT9283 + Lapatinib; first compound 0.03 µM): 0.261
- relative viability (AT9283 + Lapatinib; first compound 0.09487 µM): 0.2
- relative viability (AT9283 + Lapatinib; first compound 0.3 µM): 0.2

Cell Line: NCI-H2347
- relative viability (Erlotinib + Luminespib; first compound 0.02 µM): 1.25
- relative viability (Erlotinib + Luminespib; first compound 0.2 µM): 0.557
- relative viability (Erlotinib + Luminespib; first compound 0.6325 µM): 0.441
- relative viability (Erlotinib + Luminespib; first compound 2 µM): 0.902
- relative viability (Erlotinib + AZD7762; first compound 0.02 µM): 0.689
- relative viability (Erlotinib + AZD7762; first compound 0.2 µM): 0.856
- relative viability (Erlotinib + AZD7762; first compound 0.6325 µM): 0.783
- relative viability (Erlotinib + AZD7762; first compound 2 µM): 0.655
- relative viability (AT9283 + Decitabine; first compound 0.003 µM): 0.624
- relative viability (AT9283 + Decitabine; first compound 0.03 µM): 0.61
- relative viability (AT9283 + Decitabine; first compound 0.09487 µM): 0.471
- relative viability (AT9283 + Decitabine; first compound 0.3 µM): 0.372
- relative viability (AT9283 + Luminespib; first compound 0.003 µM): 0.364
- relative viability (AT9283 + Luminespib; first compound 0.03 µM): 0.543
- relative viability (AT9283 + Luminespib; first compound 0.09487 µM): 0.43
- relative viability (AT9283 + Luminespib; first compound 0.3 µM): 0.231
- relative viability (AT9283 + Lapatinib; first compound 0.003 µM): 0.894
- relative viability (AT9283 + Lapatinib; first compound 0.03 µM): 0.866
- relative viability (AT9283 + Lapatinib; first compound 0.09487 µM): 0.571
- relative viability (AT9283 + Lapatinib; first compound 0.3 µM): 0.501

Cell Line: NCI-H2405
- relative viability (Erlotinib + Luminespib; first compound 0.02 µM): 0.6
- relative viability (Erlotinib + Luminespib; first compound 0.2 µM): 0.655
- relative viability (Erlotinib + Luminespib; first compound 0.6325 µM): 0.598
- relative viability (Erlotinib + Luminespib; first compound 2 µM): 0.755
- relative viability (Erlotinib + AZD7762; first compound 0.02 µM): 0.749
- relative viability (Erlotinib + AZD7762; first compound 0.2 µM): 0.669
- relative viability (Erlotinib + AZD7762; first compound 0.6325 µM): 0.774
- relative viability (Erlotinib + AZD7762; first compound 2 µM): 0.652
- relative viability (AT9283 + Decitabine; first compound 0.003 µM): 0.732
- relative viability (AT9283 + Decitabine; first compound 0.03 µM): 0.725
- relative viability (AT9283 + Decitabine; first compound 0.09487 µM): 0.381
- relative viability (AT9283 + Decitabine; first compound 0.3 µM): 0.24
- relative viability (AT9283 + Luminespib; first compound 0.003 µM): 0.662
- relative viability (AT9283 + Luminespib; first compound 0.03 µM): 0.625
- relative viability (AT9283 + Luminespib; first compound 0.09487 µM): 0.352
- relative viability (AT9283 + Luminespib; first compound 0.3 µM): 0.331
- relative viability (AT9283 + Lapatinib; first compound 0.003 µM): 1.15
- relative viability (AT9283 + Lapatinib; first compound 0.03 µM): 0.789
- relative viability (AT9283 + Lapatinib; first compound 0.09487 µM): 0.295
- relative viability (AT9283 + Lapatinib; first compound 0.3 µM): 0.198

Cell Line: NCI-H3122
- relative viability (Erlotinib + Luminespib; first compound 0.02 µM): 0.0866
- relative viability (Erlotinib + Luminespib; first compound 0.2 µM): 0.089
- relative viability (Erlotinib + Luminespib; first compound 0.6325 µM): 0.0884
- relative viability (Erlotinib + Luminespib; first compound 2 µM): 0.107
- relative viability (Erlotinib + AZD7762; first compound 0.02 µM): 0.948
- relative viability (Erlotinib + AZD7762; first compound 0.2 µM): 1.05
- relative viability (Erlotinib + AZD7762; first compound 0.6325 µM): 1
- relative viability (AT9283 + Decitabine; first compound 0.003 µM): 0.472
- relative viability (AT9283 + Decitabine; first compound 0.03 µM): 0.397
- relative viability (AT9283 + Decitabine; first compound 0.09487 µM): 0.296
- relative viability (AT9283 + Decitabine; first compound 0.3 µM): 0.136
- relative viability (AT9283 + Luminespib; first compound 0.003 µM): 0.122
- relative viability (AT9283 + Luminespib; first compound 0.03 µM): 0.0841
- relative viability (AT9283 + Luminespib; first compound 0.09487 µM): 0.051
- relative viability (AT9283 + Luminespib; first compound 0.3 µM): 0.0606
- relative viability (AT9283 + Lapatinib; first compound 0.003 µM): 1.07
- relative viability (AT9283 + Lapatinib; first compound 0.03 µM): 0.964
- relative viability (AT9283 + Lapatinib; first compound 0.09487 µM): 0.446
- relative viability (AT9283 + Lapatinib; first compound 0.3 µM): 0.328

Cell Line: PC-3 [JPC-3]
- relative viability (Erlotinib + Luminespib; first compound 0.02 µM): 0.64
- relative viability (Erlotinib + Luminespib; first compound 0.2 µM): 0.363
- relative viability (Erlotinib + Luminespib; first compound 0.6325 µM): 0.406
- relative viability (Erlotinib + Luminespib; first compound 2 µM): 0.306
- relative viability (Erlotinib + AZD7762; first compound 0.02 µM): 0.639
- relative viability (Erlotinib + AZD7762; first compound 0.2 µM): 0.522
- relative viability (Erlotinib + AZD7762; first compound 0.6325 µM): 0.415
- relative viability (Erlotinib + AZD7762; first compound 2 µM): 0.356
- relative viability (AT9283 + Decitabine; first compound 0.003 µM): 0.837
- relative viability (AT9283 + Decitabine; first compound 0.03 µM): 0.798
- relative viability (AT9283 + Decitabine; first compound 0.09487 µM): 0.695
- relative viability (AT9283 + Decitabine; first compound 0.3 µM): 0.541
- relative viability (AT9283 + Luminespib; first compound 0.003 µM): 0.739
- relative viability (AT9283 + Luminespib; first compound 0.03 µM): 0.744
- relative viability (AT9283 + Luminespib; first compound 0.09487 µM): 0.473
- relative viability (AT9283 + Luminespib; first compound 0.3 µM): 0.404
- relative viability (AT9283 + Lapatinib; first compound 0.003 µM): 0.444
- relative viability (AT9283 + Lapatinib; first compound 0.03 µM): 0.436
- relative viability (AT9283 + Lapatinib; first compound 0.09487 µM): 0.422
- relative viability (AT9283 + Lapatinib; first compound 0.3 µM): 0.304

Cell Line: PC-14
- relative viability (Erlotinib + Luminespib; first compound 0.02 µM): 0.154
- relative viability (Erlotinib + Luminespib; first compound 0.2 µM): 0.134
- relative viability (Erlotinib + Luminespib; first compound 0.6325 µM): 0.147
- relative viability (Erlotinib + Luminespib; first compound 2 µM): 0.0981
- relative viability (Erlotinib + AZD7762; first compound 0.02 µM): 0.206
- relative viability (Erlotinib + AZD7762; first compound 0.2 µM): 0.178
- relative viability (Erlotinib + AZD7762; first compound 0.6325 µM): 0.12
- relative viability (Erlotinib + AZD7762; first compound 2 µM): 0.13
- relative viability (AT9283 + Decitabine; first compound 0.003 µM): 0.199
- relative viability (AT9283 + Decitabine; first compound 0.03 µM): 0.157
- relative viability (AT9283 + Decitabine; first compound 0.09487 µM): 0.0721
- relative viability (AT9283 + Decitabine; first compound 0.3 µM): 0.0727
- relative viability (AT9283 + Luminespib; first compound 0.003 µM): 0.156
- relative viability (AT9283 + Luminespib; first compound 0.03 µM): 0.15
- relative viability (AT9283 + Luminespib; first compound 0.09487 µM): 0.121
- relative viability (AT9283 + Luminespib; first compound 0.3 µM): 0.0746
- relative viability (AT9283 + Lapatinib; first compound 0.003 µM): 0.328
- relative viability (AT9283 + Lapatinib; first compound 0.03 µM): 0.393
- relative viability (AT9283 + Lapatinib; first compound 0.09487 µM): 0.203
- relative viability (AT9283 + Lapatinib; first compound 0.3 µM): 0.102

Cell Line: RERF-LC-KJ
- relative viability (Erlotinib + Luminespib; first compound 0.02 µM): 1.32
- relative viability (Erlotinib + Luminespib; first compound 0.2 µM): 0.993
- relative viability (Erlotinib + Luminespib; first compound 0.6325 µM): 1.23
- relative viability (Erlotinib + AZD7762; first compound 0.02 µM): 0.846
- relative viability (Erlotinib + AZD7762; first compound 0.2 µM): 0.944
- relative viability (Erlotinib + AZD7762; first compound 0.6325 µM): 0.949
- relative viability (Erlotinib + AZD7762; first compound 2 µM): 0.608
- relative viability (AT9283 + Decitabine; first compound 0.003 µM): 0.746
- relative viability (AT9283 + Decitabine; first compound 0.03 µM): 0.477
- relative viability (AT9283 + Decitabine; first compound 0.09487 µM): 0.282
- relative viability (AT9283 + Decitabine; first compound 0.3 µM): 0.224
- relative viability (AT9283 + Luminespib; first compound 0.003 µM): 1.24
- relative viability (AT9283 + Luminespib; first compound 0.03 µM): 0.792
- relative viability (AT9283 + Luminespib; first compound 0.09487 µM): 0.362
- relative viability (AT9283 + Luminespib; first compound 0.3 µM): 0.28
- relative viability (AT9283 + Lapatinib; first compound 0.003 µM): 0.809
- relative viability (AT9283 + Lapatinib; first compound 0.03 µM): 0.516
- relative viability (AT9283 + Lapatinib; first compound 0.09487 µM): 0.256
- relative viability (AT9283 + Lapatinib; first compound 0.3 µM): 0.191
